For one compound, IC50 results are on record in patent US7122679B2, “Multicyclic compounds and the use thereof” (Cephalon, Inc., priority 2000, dated 2006).

A word on the IC50: it is the point on the concentration scale where inhibition reaches its midpoint.

The experiment deals with recombinant human PARP (Homo sapiens, UniProt P09874). Briefly: PARP activity: transfer of radiolabeled ADP-ribose units from [32P]NAD+ to a protein acceptor. The experiment is classed as biochemical. Particulars: Table 3. Here is the method: PARP activity was monitored by transfer of radiolabeled ADP-ribose units from [^32P]NAD^+ to a protein acceptor such as histone or PARP itself. […] The reactions were initiated by the addition of 100 μM NAD^+ supplemented with 2 uCi [^32P]NAD^+/mL and maintained at room temperature for 12 minutes. Assays were terminated by the addition of […] and the radiolabeled precipitate was collected on a 96-well filter plate (Millipore, MADP NOB 50), washed with 25% TCA. The amount of acid-insoluble radioactivity, corresponding to polyADP-ribosylated protein, was quantitated in a Wallac MicroBeta scintillation counter.
Chain of recombinant human PARP (P09874 whole entry): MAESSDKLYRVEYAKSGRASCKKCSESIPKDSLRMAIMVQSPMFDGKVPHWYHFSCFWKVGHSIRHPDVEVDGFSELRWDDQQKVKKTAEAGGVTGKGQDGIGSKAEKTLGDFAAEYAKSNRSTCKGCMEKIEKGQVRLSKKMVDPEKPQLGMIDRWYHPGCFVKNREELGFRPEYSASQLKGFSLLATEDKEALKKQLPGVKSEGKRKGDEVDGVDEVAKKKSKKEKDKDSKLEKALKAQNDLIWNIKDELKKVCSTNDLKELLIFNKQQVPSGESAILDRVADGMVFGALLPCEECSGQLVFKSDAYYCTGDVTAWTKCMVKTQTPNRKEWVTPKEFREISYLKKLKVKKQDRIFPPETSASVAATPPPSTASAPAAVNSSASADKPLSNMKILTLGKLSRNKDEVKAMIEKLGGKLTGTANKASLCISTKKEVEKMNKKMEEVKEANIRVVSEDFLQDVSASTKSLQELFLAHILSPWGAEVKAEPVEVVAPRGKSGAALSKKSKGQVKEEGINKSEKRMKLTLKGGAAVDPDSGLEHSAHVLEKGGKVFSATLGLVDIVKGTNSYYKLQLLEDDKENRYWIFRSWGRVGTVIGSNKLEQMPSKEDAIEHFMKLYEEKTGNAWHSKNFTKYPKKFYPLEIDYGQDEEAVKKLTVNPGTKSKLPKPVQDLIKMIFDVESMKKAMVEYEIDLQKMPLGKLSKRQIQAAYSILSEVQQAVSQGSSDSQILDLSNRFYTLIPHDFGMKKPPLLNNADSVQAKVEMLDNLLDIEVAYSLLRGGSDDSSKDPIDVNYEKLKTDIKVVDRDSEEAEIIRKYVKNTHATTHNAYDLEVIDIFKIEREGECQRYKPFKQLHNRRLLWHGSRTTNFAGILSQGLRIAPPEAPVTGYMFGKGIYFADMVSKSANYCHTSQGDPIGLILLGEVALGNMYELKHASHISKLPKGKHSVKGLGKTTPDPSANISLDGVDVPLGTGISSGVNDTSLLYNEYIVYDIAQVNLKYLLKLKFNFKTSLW
Single-point inhibition data were calculated by comparing PARP, VEGFR2, or MLK3 activity in the presence of inhibitor to activity in the presence of DMSO only. Inhibition curves for compounds were generated by plotting percent inhibition versus log10 of the concentration of compound. IC50 values were calculated by nonlinear regression using the sigmoidal dose-response (variable slope) equation in GraphPad Prism as follows: y=bottom+(top−bottom)/(1+10^(logIC^50^−x)*Hillslope) where y is the % activity at a given concentration of compound, x is the logarithm of the concentration of compound, bottom is the % inhibition at the lowest compound concentration tested, and top is the % inhibition at the highest compound concentration examined. […]

Turning to `NCCCCC(N)C(=O)N1C(=O)c2c3c(c4[nH]c5ccc(Br)cc5c4c2C1=O)CCC3` (stereo not shown) [Compound 6e], the 50% inhibitory concentration (IC50) was 69 nM.
